How the values were obtained:
[1] = test system: isolated microspores of Helianthus annuus, 007 Genotype; test: Callus induction from isolated microspores with different 2,4-D concentrations in induction media II (Example 4.3); type: cell-based
Experimental: Top row: arrows indicate where embryos are located (magnification). Bottom row: corresponding petri dish.
(§1) Solution of microspore density of 80.000 microspores per ml are centrifuged for 10 min at 200 g and supernatant is decanted. Induction media I (see, for example, Table 3.4) is added to the remaining microspores and divided into plastic tubes. Histone deacetylase inhibitor (HDACi) and colchicine are added to each tube and microspore solutions are stored at 26° C. for 2 days. If the HDACi trichostatin A (TSA) is used, it is dissolved in dimethylsulfoxide (DMSO) to a final concentration of between 1M and 10 μM, preferably 100 nM to 10 μM, more preferably 1 μM to 10 μM, depending on the genotype and the plant donor sources. If colchicine is used, it is dissolved in water to a final concentration of between 1 mg and 500 mg, preferably 10 mg to 200 mg, more preferably 50 mg to 100 mg, depending on the genotype and the plant donor sources. The HDACi and the chromosome doubling agent are removed by centrifugation for 10 min, 200 g. Supernatant is decanted, corresponding amount of induction media I is added, and microspores resuspended. Tubes are incubated at 26° C. in the dark for several days.
(§2) Thereafter, microspore solutions are centrifuged for 10 min at 200 g and supernatant is decanted. Corresponding amounts of induction media II with different 2,4-D concentrations is added according to the treatments (see, for example, Table 3.5) and the microspore solution is plated in petri dishes and placed at 26° C. for callus induction.
Depending on tissue culture length, and the tissue culture system, at least one antibiotic can be added to Incubation Medium II, such as carbenicillin, penicillin or timentin. One to two weeks after isolation, the first microspore nuclear division can be observed (DAPI staining). Callus structures can be seen by eye after approximately three weeks after isolation.

[2] = test system: sunflower microspore derived calluses; test: Plant regeneration: shoots regenerated per callus unit after callus induction with auxin analogs (Example 4.2); type: cell-based, Helianthus annuus; settings: auxin analog used during callus induction (FIG. 8B)
Experimental: as §2, with “auxin and auxin analogs” for “2,4-D concentrations”, “3.3)” for “3.5)”, “[…]” for “26° C.”, “induction. Abbreviations used in Table 3.3: 3.5ME=3,5-dimethylphenoxyacetic acid; PHAA=Phenoxyacetic acid; 4-CPA or 4CIPA=p-Chlorophenoxyacetic acid.” for “induction.”
Callus is removed from liquid media and transferred to regeneration media (see, for example, Table 4) with 1 mg/L BAP and grown at 26° C. in the light until plant regeneration is observed, approximately 2 weeks after transfer (FIG. 4)

[3] = test system: isolated microspores of Helianthus annuus; test: Callus induction from isolated microspores with auxin analogs in induction media II (Example 4.2); type: cell-based; settings: 1 mg/L (FIG. 8A), control with 2,4-D
Experimental: as §1, with “example, Table 3.2) is added” for “example, Table 3.4) is added”, “of between 1 nM and 10” for “of between 1M and 10”, “mg and 300 mg, preferably” for “mg and 500 mg, preferably”, “donor sources. Another antimitotic agent, e.g., oryzalin and/or trifluralin, or any other chromosome doubling agent may be used as well. The HDACi” for “donor sources. The HDACi”, “microspores resuspended. Usually, an auxin or a (synthetic) analog thereof will usually be applied in a concentration of about 0.05 to about 3 mg/L. Tubes are” for “microspores resuspended. Tubes are”, “several days. […]” for “several days.”

[4] = test system: microspore derived sunflower shoots; test: Plant rooting of microspore derived shoots in rooting media (Example 5.2); type: in vivo, Helianthus annuus; settings: rooting media (MS), 24° C. in the light, approximately 2 weeks after transfer; auxin 0.5 mg/L
Experimental: Shoots are transferred to growing/rooting medium (see, for example, Table 5) with or without one auxin (in the example PAA (phenylacetic acid) or IBA were used) and grown at 24° C. in the light until root formation is observed, approximately 2 weeks after transfer (FIG. 10).

SMILES: O=C(O)COc1ccc(Cl)cc1Cl [2,4-D, 2,4-Dichlorophenoxyacetic acid]
- Generation of microspore-derived embryos ([1]; 0.5, 0.2, 0.1 mg/L 2,4-D and Ctrl 1 mg/L 2,4-D): observed in all treatments
- Induction of microspore division and callus formation ([1]; 0.5, 0.2, 0.1 mg/L 2,4-D and Ctrl 1 mg/L in induction media II, 007 Genotype (FIG. 9)): able to induce microspore division and callus formation
- Callus formation of the treatments compared with control ([1]; 0.5, 0.2, 0.1 mg/L 2,4-D versus Ctrl 1 mg/L 2,4-D): did not decreased or enhanced callus formation

SMILES: Cc1cc(C)cc(OCC(=O)O)c1 [3.5ME, 3,5-dimethylphenoxyacetic acid]
- Regeneration: number of shoots regenerated per callus unit in comparison to control [2]: tendency to increase regeneration

SMILES: O=C(O)COc1ccc(Cl)cc1 [4CIPA/4-CPA, p-Chlorophenoxyacetic acid]
- Callus quantity (callus number) in comparison to control [3]: tendency to increase callus quantity
- Regeneration: number of shoots regenerated per callus unit in comparison to control [2]: tendency to increase regeneration

SMILES: O=C(O)CCCc1c[nH]c2ccccc12 [IBA, indole-3-butyric acid]
- Cultivated plants showing root formation [4]: 68%
